± gives the expanded uncertainty stated by the source.
Settings: Liquid; pulse heating

| Critical pressure [kPa] | Critical temperature [K] | SMILES |
| --- | --- | --- |
| 910 ± 60 | 751 ± 16 | CCCCC[O][Ti]([O]CCCCC)([O]CCCCC)[O]CCCCC [tetrakis(pentyloxy)titanium] |
| 780 ± 40 | 780 ± 16 | CCCCCC[O][Ti]([O]CCCCCC)([O]CCCCCC)[O]CCCCCC [tetrakis(hexyloxy)titanium] |
| 1400 ± 80 | 647 ± 12 | CC[O-].CC[O-].CC[O-].CC[O-].[Ti+4] [tetraethoxytitanium] |
| 610 ± 40 | 882 ± 18 | CCCCCCCCCC[O][Ti]([O]CCCCCCCCCC)([O]CCCCCCCCCC)[O]CCCCCCCCCC [tetra(decyloxy)titanium] |
| 630 ± 40 | 855 ± 18 | CCCCCCCCC[O][Ti]([O]CCCCCCCCC)([O]CCCCCCCCC)[O]CCCCCCCCC [tetranonoxytitanium] |

The next lines start with the compound.

| SMILES | Critical pressure [kPa] | Critical temperature [K] |
| --- | --- | --- |
| CCCC[O-].CCCC[O-].CCCC[O-].CCCC[O-].[Ti+4] [titanium(IV) butan-1-olate] | 1020 ± 60 | 719 ± 14 |
| CCCCCCC[O][Ti]([O]CCCCCCC)([O]CCCCCCC)[O]CCCCCCC [tetraheptoxytitanium] | 730 ± 40 | 808 ± 16 |
| CCCCCCCC[O][Ti]([O]CCCCCCCC)([O]CCCCCCCC)[O]CCCCCCCC [tetraoctoxytitanium] | 660 ± 40 | 831 ± 16 |
| CCC[O-].CCC[O-].CCC[O-].CCC[O-].[Ti+4] [tetrapropoxytitanium] | 1150 ± 80 | 685 ± 14 |

Source: the NIST ThermoML archive (doi:10.1021/je900302n)
